According to ChEMBL document CHEMBL5150035, “Mechanism-based inhibition of GH127/146 cysteine glycosidases by stereospecifically functionalized l-arabinofuranosides” (Bioorg Med Chem, 2022):
The source made the active and inactive calls. The rule behind the calls is not given here.

What was measured:
[1] = Substrate activity at Bifidobacterium longum JCM 1217 HypBA1 homologue BLLJ_1848 at 10 mM incubated for 24 hrs in presence of TCEP by TLC analysis; assay type: ADME; conditions: 10000 µM
[2] = Substrate activity at Bifidobacterium longum JCM 1217 HypBA1 homologue BLLJ_1848 at 10 mM incubated for 24 hrs in absence of TCEP by TLC analysis; assay type: ADME; conditions: 10000 µM
[3] = Drug metabolism assessed as hydrolysed metabolite formation at 10 mM incubated for 24 hrs in presence of TCEP by TLC analysis; assay type: ADME; conditions: 10000 µM
[4] = biological target: T1, Non-reducing end beta-L-arabinofuranosidase (Bifidobacterium longum subsp. longum) (UniProt E8MGH8); experiment: (§1) Inhibition of C-terminal-His6-tagged Bifidobacterium longum HypBA1 expressed in Escherichia coli C43 (DE3) cells assessed as reduction in pNP liberation using pNP-beta-L-Araf as substrate at 0.1 to 1 mM preincubated with enzyme for 2 hrs followed by substrate addition and measured after 24 hrs by spectrophotometric analysis; conditions: dose 0.1-1 mM, time 26.0 hrs
T1 sequence (whole entry): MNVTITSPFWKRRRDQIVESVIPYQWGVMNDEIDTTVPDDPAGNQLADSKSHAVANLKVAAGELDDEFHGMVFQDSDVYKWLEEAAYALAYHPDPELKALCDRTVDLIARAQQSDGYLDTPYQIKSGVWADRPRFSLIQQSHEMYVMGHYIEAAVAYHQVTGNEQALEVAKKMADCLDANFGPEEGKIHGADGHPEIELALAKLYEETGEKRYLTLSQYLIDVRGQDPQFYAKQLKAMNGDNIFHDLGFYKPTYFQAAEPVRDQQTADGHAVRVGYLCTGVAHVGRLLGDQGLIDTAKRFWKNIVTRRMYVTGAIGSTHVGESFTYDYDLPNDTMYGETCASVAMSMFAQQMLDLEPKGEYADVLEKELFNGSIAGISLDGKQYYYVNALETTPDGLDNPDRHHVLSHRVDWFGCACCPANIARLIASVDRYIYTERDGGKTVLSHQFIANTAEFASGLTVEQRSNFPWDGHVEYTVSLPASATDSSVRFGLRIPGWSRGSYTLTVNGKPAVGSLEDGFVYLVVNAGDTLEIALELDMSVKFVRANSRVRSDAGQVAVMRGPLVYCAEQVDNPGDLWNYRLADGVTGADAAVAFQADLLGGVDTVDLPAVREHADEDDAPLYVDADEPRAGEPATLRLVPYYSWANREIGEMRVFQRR

[5] = biological target: T1, Non-reducing end beta-L-arabinofuranosidase (Bifidobacterium longum subsp. longum); experiment: as §1, with “L-Araf3-Hyp” for “pNP-beta-L-Araf”, “substrate” for “substrate at 0.1 to 1 mM”; conditions: time 26.0 hrs
[6] = system: Bifidobacterium longum; experiment: Inhibition of Bifidobacterium longum JCM 1217 HypBA1 homologue BLLJ_1848 using S3 as substrate preincubated with enzyme followed by substrate addition for 30 mins in absence of TCEP by HPLC-FLD analysis
[7] = system: Bifidobacterium longum; experiment: Inhibition of Bifidobacterium longum JCM 1217 HypBA1 homologue BLLJ_1848 using S3 as substrate preincubated with enzyme followed by substrate addition for 30 mins in presence of TCEP by HPLC-FLD analysis

inhibition [4] | inhibition [5] | Structure (SMILES) | Activity [1] | Drug metabolism [3] | further results
– | – | [N-]=[N+]=N[C@H]1O[C@@H](CO)[C@H](O)[C@H]1O | Active | Metabolite_Detected | Activity [2]: Active
Active | – | O=C(CBr)N[C@H]1O[C@@H](CO)[C@H](O)[C@H]1O | – | – | –
– | Active | O=C(CCl)N[C@H]1O[C@@H](CO)[C@H](O)[C@H]1O | – | – | –
Active | – | O=C(CBr)N[C@@H]1O[C@@H](CO)[C@H](O)[C@H]1O | – | – | –
– | Active | O=C(CCl)N[C@@H]1O[C@@H](CO)[C@H](O)[C@H]1O | – | – | –
– | – | [N-]=[N+]=N[C@@H]1O[C@@H](CO)[C@H](O)[C@H]1O | Active | Metabolite_Detected | inhibition [6]: Active; inhibition [7]: Active
